Experimental findings from PubChem BioAssay (NCI) are described below.

What all share (assay): NCI anticancer screen, dose series, 48 h
The subject of assay [1] is HT29 colon.
The subject of assay [2] is K-562 leukemia.
Assay [3] deals with KM12 colon.
Assay [4] has as its system LOX IMVI melanoma.
In assay [5] the test system is RXF 393 renal.
The test system of assay [6] is SF-295 CNS.
Assay [7] concerns TK-10 renal.
The subject of assay [8] is UACC-257 melanoma.
Assay [9] relates to UO-31 renal.
The subject of assay [10] is MALME-3M melanoma.

The structures appear in SMILES notation. Several values for one entry are separate records, joined by “and”; a condition that tells them apart may be missing. Identical values can stand only once.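 Growth conditions: 96-well plates. Treatment: test compound, 48 hours, 5 concentrations. Analysis: linear interpolation between bracketing concentrations; unreached endpoints set to highest concentration. At the GI50, growth is halved. The concentration for full growth arrest is given as TGI.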

With `COc1ccc2c3c([nH]c2c1[N+](=O)[O-])C(C)N(C(=O)/C=C/c1ccccc1)CC3` (stereo not given), the TGI in assay [1] was above 100 µM; in assay [2] it was above 100 µM; in assay [3], above 100 µM; in assay [4], 42.6 µM; in [5] it was 24.1 µM; in [6], 5.88 µM. Besides, the TGI in assay [7], in [8] and in assay [9] was above 100 µM in each case.

As for `COc1cccc(NC(=O)c2ccc(C(F)(F)F)nc2Nc2ccc(Cl)cc2C)c1`, the GI50 in assay [1] is 10.2 µM; in [2], 13.9 µM; in assay [4] it was 11.3 µM; in [5] it was 1.17 µM; in [6] it was 12.4 µM; in [8] it was 13.4 µM. In addition, the GI50 in [9] was 1.45 µM. In addition, the TGI in [1] came out at 22.1 µM; in [2], 38.8 µM; in [4], 23.4 µM; in assay [5] it was 15.4 µM; in assay [6], 28.6 µM; in [8], 26.2 µM. In addition, the TGI in [9] was determined as 8.29 µM.

For the compound `COc1cc(/C=C\c2cc(/C=C\c3ccc(O)c(OC)c3)n(C(=O)Nc3ccc(C(F)(F)F)cc3)n2)ccc1O`, the GI50 is 2.02 µM in assay [1]; 2.53 µM in assay [2]; 2.33 µM in assay [3]; 2.89 µM in assay [10]; 2.89 µM in assay [6]; 4.13 µM in assay [7]. In addition, in [8], the GI50 is 4.01 µM. Besides, the TGI in [1] was 4.13 µM; in assay [2] it was above 100 µM; in [3], 5.59 µM; in [10], 8.4 µM; in assay [6], 9.85 µM; in [7] it was 14.8 µM. The TGI in [8] worked out at 14 µM.

Regarding `Cn1c(-c2c(N)n(Cc3ccc(Cl)cc3)c3nc(C#N)c(C#N)nc23)nc2ccccc21`, the GI50 in assay [2] was 17.3 µM; in [3], 2.76 µM; in assay [4], 1.14 µM; in [5], 0.567 µM; in assay [6] it was 6.28 µM; in assay [7], 6.9 µM. The GI50 in assay [8] is 13.5 µM; in assay [9] it was 5.35 µM. Besides, the TGI in [2] is above 50 µM; in [3], 32.2 µM; in assay [4], 5.68 µM; in [5], 4.67 µM; in assay [6] it was 40.5 µM; in assay [7] it was 15.8 µM. The values for the TGI in assay [8] and in assay [9] were above 50 µM and 13.2 µM, respectively.

As to `CC(=O)C1C(=O)C(=O)N(c2ccc(Cl)cc2C)C1=O` (stereo not given), the TGI in [1], in [2], in [3], in [10], in [5] and in assay [6] was above 100 µM in each case. Further, the TGI in assay [7], in assay [8] and in [9] was above 100 µM in each case.

As for `S=C(S)NCCCn1ccnc1`, the TGI in assay [1], in assay [2], in [3], in assay [4], in assay [10] and in assay [6] was above 100 µM in each case. In addition, the TGI in assay [7], in [8] and in [9] was above 100 µM each time.

Consider `CC(C)[C@H](COC(C)(C)C)N=CN1CSc2ccccc21`, for which the TGI was above 100 µM in [1]; above 100 µM in [2]; above 100 µM in [3]; 93.2 µM in assay [4]; 95.2 µM in assay [5]; 67.4 µM in [6]. Moreover, the TGI in [7] and in assay [9] was above 100 µM each time.

Turning to `C#Cc1cccc(N2C(=O)CC(=P(c3ccccc3)(c3ccccc3)c3ccccc3)C2=O)c1`, the TGI in assay [1], in assay [2], in [10], in assay [6], in [7] and in [8] was above 100 µM throughout. The compound also gave a TGI in assay [9] above 100 µM.

Take `NCC(=O)OCN1C(=O)C2C3C=CC(C2C1=O)C1C2C(=O)N(COC(=O)CN)C(=O)C2C31` (stereo not given): the TGI in assay [1] was above 100 µM; in assay [2], 60.9 µM and > 100 µM; in assay [3], 48.4 µM and 42.2 µM; in assay [4], 37.9 µM; in [5] it was 37.9 µM and 42.3 µM; in [6], above 100 µM. The TGI in assay [7] was above 100 µM; in assay [8] it was > 100 µM and 77.6 µM; in assay [9], 97.7 µM and > 100 µM.

Turning to `CCN(CC)CCNc1ccc(CO)c2sc3ccccc3c(=O)c12`, the TGI in [3] is 26 µM [middle of 4 runs]; in [5] it was 8.45 µM and 19 µM and 20.3 µM; in [6], 21.1 µM [middle of 4 runs]; in assay [7] it was 11.4 µM and 24.9 µM; in assay [9] it was 20.9 µM [middle of 4 runs]. For the same compound, the GI50 in assay [5] is 2.23 µM and 7.35 µM; in assay [6], 2.98 µM and 5.31 µM; in assay [7], 2.96 µM; in [8], 1.7 µM and 3.79 µM; in [9], 2.09 µM and 8.51 µM.

Take `C=C(C)[C@@H]1CC[C@]2(C)[C@H](CC=C3[C@@H]4CC(C)(C)CC[C@]4(C(=O)OC)CC[C@]32C)[C@@]1(C)CC/C(N)=N/O`: the GI50 in assay [1] is 1.88 µM; in assay [2], 2.47 µM; in [3] it was 1.68 µM; in assay [10] it was 1.69 µM; in assay [5], 1.8 µM; in [6], 1.79 µM. Moreover, the figures for the GI50 in [7], in [8] and in [9] were 3.66 µM, 2.01 µM and 1.51 µM, respectively. Further, the TGI in [1] was 5.11 µM; in assay [2], above 100 µM; in assay [3], 3.6 µM; in assay [10] it was 3.33 µM; in assay [5], 3.67 µM; in [6], 4.01 µM. Also, the TGI in assay [7] amounted to 18.6 µM; in assay [8], 5.34 µM; in assay [9] it was 2.94 µM.

In the case of `O=C1c2ccccc2C(=O)N1C/C=N/NS(=O)(=O)c1ccc(Cl)cc1`, the TGI in assay [1], in assay [2], in [4], in assay [10], in assay [6] and in assay [7] was above 100 µM each time. Also, the TGI in [8] and in assay [9] was above 100 µM in each case.

As to `CCCC(=O)C(CC)/C(CCC(=O)N(Cc1ccccc1)Cc1ccccc1)=N/NC(=O)C[N+](C)(C)C` (stereo not given), the TGI in [1], in assay [2], in assay [3], in assay [10], in assay [5] and in [6] was above 100 µM in each case. Also, the TGI in assay [8] and in assay [9] was above 100 µM throughout.

Turning to `COc1ccccc1NC(=O)N/C(N)=N/c1nc2ccccc2s1`, the GI50 in assay [1] is 0.0389 µM; in assay [2], 0.0351 µM; in assay [3], 0.0505 µM; in assay [4], 0.145 µM; in assay [5], 0.0402 µM; in assay [6], 0.0418 µM. Besides, in [9], the GI50 is 0.389 µM. Further, the TGI was above 100 µM in assay [1]; above 100 µM in [2]; above 100 µM in assay [3]; above 100 µM in [4]; 0.731 µM in [5]; above 100 µM in assay [7]. Moreover, the TGI in assay [8] and in [9] was above 100 µM in each case.

Turning to `CC(=O)c1ccc(NCn2nc(-c3ccccc3O)oc2=S)cc1`, the GI50 was 47 µM in assay [1]; above 100 µM in assay [2]; above 100 µM in [3]; 22.7 µM in [4]; 24.6 µM in assay [5]; above 100 µM in assay [6]. For the same compound, the GI50 in assay [7] is 67.1 µM; in assay [8] it was above 100 µM; in assay [9], above 100 µM. In addition, the TGI in assay [1] is above 100 µM; in assay [2], above 100 µM; in assay [3], above 100 µM; in assay [4], 45.5 µM; in [5] it was 72.8 µM; in assay [6], above 100 µM. For the same compound, the TGI in assay [7], in assay [8] and in [9] was above 100 µM in each case.

Consider `O=C(/C=C/c1ccccc1)c1ccc(O)c(CN2CCN(c3cc4c(cc3F)c(=O)c(C(=O)O)cn4C3CC3)CC2)c1`, for which the GI50 in [1] was 1.58 µM; in assay [2], 0.278 µM; in assay [3], 1.69 µM; in assay [10] it was 0.769 µM; in [5] it was 1.55 µM; in assay [6], 2.05 µM. For the same compound, the GI50 in assay [7] was 6.37 µM; in [8], 1.91 µM. The TGI in assay [1] is above 100 µM; in assay [2], above 100 µM; in assay [3] it was 21 µM; in assay [10], 15.6 µM; in assay [5] it was 15.8 µM; in assay [6], 26.1 µM. Moreover, the TGI in assay [7] and in [8] was above 100 µM each time.

Turning to `COc1ccc2c(CCNS(=O)(=O)c3ccccc3)c(C(C)=O)[nH]c2c1[N+](=O)[O-]`, the TGI in assay [1], in assay [2], in assay [3], in assay [4], in [6] and in [8] was above 100 µM each time. Also, the TGI in assay [9] was above 100 µM.
